Measured values reported in patent publication US20160017326A1, “MICRORNAS AS FUNCTIONAL MEDIATORS AND BIOMARKERS OF BONE METASTASIS” (THE TRUSTEES OF PRINCETON UNIVERSITY, priority 2013, published 2016).

Legend:
[1] = tested on: RAW264.7 cells; assay: RANKL-induced osteoclast differentiation, TRAP staining; format: cell-based, murine; details: all models tested
Source text: HeLa and RAW264.7 cells (American Type Culture Collection, ATCC) were maintained in Dulbecco's modified Eagle's medium (DMEM) supplemented with 10% fetal bovine serum (FBS), penicillin/streptomycin (GIBCO), and fungizone. MOCP-5 cells were maintained in αMEM with 10% FBS and antibiotics. MDA-MB-231 parental cells (ATCC) and all sublines (SCP2, SCP4, SCP6, SCP28, SCP46) were maintained in DMEM with 10% FBS and antibiotics. The murine 4T1 and 4T1.2 cells, and human TSU-Pr1, and TSU-PR1-B2 cells were similarly maintained in DMEM with 10% FBS and antibiotics. For osteoclast differentiation assays, cells were treated with indicated concentration of RANKL in DMEM plus 10% FBS, with media changes performed every 2 days. Primary osteoclasts were isolated from bone marrow cells flushed from the tibia of 6-week-old wild type Balb/c mice and filtered through a […] cell-strainer before overnight culture in aMEM with 10% FBS. The following day 1×10^6 non-adherent cells were plated in 6-well plates supplemented with 50 ng/mL M-CSF for 2 days, followed by 50 ng/mL RANKL for an additional 4-5 days, with media changes every 2 days. Human osteoclasts were obtained from Lonza (2T-110) and differentiated by treatment with 33 ng/ml M-CSF and 66 ng/ml RANKL. CM was collected from the indicated sub-confluent tumor cells grown in DMEM with […] for 24 hours. The CM was passed through a 0.2 μm filter before addition to 1×10^5 RAW264.7 or MOCP-5 cells in a 6-well plate. The media was replaced with fresh CM daily. Cells were TRAP stained on day 6 using a leukocyte acid phosphatase kit (Sigma) and TRAP^+-multineucliated cells were quantified as mature osteoclasts. […]

[2] = tested on: Mitf 3'UTR; assay: 3'UTR luciferase reporter assay, Mitf; format: cell-based, mouse; details: co-transfection in HeLa, relative to negative control miRNA
Method: (§1) For NFκB reporter assays the pGL4.32 [luc2P/NF-κB-RE/Hygro] vector (Promega) was co-transfected with a Renilla-luciferase plasmid into cells. After 24 hours, cells were treated with 50 ng/ml RANKL, 50 ng/ml sICAM1, or 10 ng/ml TNFα for analysis at indicated timepoints. Wildtype and mutant 3′UTRs were PCR amplified from mouse genomic DNA. The 3′UTRs were cloned into the pMIR-REPORT vector (AMBION®) downstream of firefly luciferase. Mutations in miRNA target sites were generated using the QuikChange Multi site-directed mutagenesis kit (Stratagene). 5×10^4 HeLa cells were plated in 24-well plates 24 hours prior to transfection. 200 ng of reporter plasmid was co-transfected with the renilla-luciferase control plasmid and 10 pM pre-miRNA precursor or precursor control (AMBION®) using Lipofectamine 2000 (Invitrogen). Cells were lysed 24 hours after transfection and assayed for luciferase activity using the Glomax 96 Luminometer (Promega). Primer sequences for cloning or mutagenesis are listed below:
(§2) Reporter constructs were co-transfected with pre-miRs, as well as a Renilla luciferase plasmid for normalization.

[3] = tested on: Mmp14 3'UTR; assay: 3'UTR luciferase reporter assay, Mmp14; format: cell-based, mouse; details: co-transfection in HeLa
Method: as §1, §2

[4] = tested on: Pu.1, Nfatc1, Ctsk in RAW264.7 cells; assay: Western blot of Pu.1, Nfatc1, Ctsk after miRNA transfection and RANKL; format: cell-based, murine; details: transient miRNA transfection, 50 ng/ml RANKL
Method: SDS lysis buffer (0.05 mM Tris-HCl, 50 mM BME, 2% SDS, 0.1% Bromophenol blue, 10% glycerol) was used to collect protein from cells. Samples were sonicated and heat denatured protein was equally loaded, separated on a 10% SDS-page gel, transferred onto a pure nitrocellulose membrane (BioRad), and blocked with 5% milk. Primary antibodies for immunoblotting included: anti-IκBα (1:1000 dilution, Cell signaling, 44D4), anti-p-p65 (1:500 dilution, Santa Cruz Biotechnology), anti-Pu.1 (5 μg/ml, Abcam, AB88082), anti-Nfatc1 (1 μg/ml, Abcam, AB25916), anti-Ctsk (4 μg/ml, Abcam, AB19027), anti-β-actin (1:5000 dilution, ABcam), for loading control. Membranes were incubated with horseradish peroxidase (HRP)-conjugated anti-mouse secondary antibody (1:2000 dilution, GE Healthcare) or anti-rabbit secondary antibody (1:2000 dilution, GE Healthcare) for 1 h and chemiluminescence signals were detected by ECL substrate (GE Healthcare).
To better examine the capacity of the miRNAs to inhibit osteoclast differentiation, osteoclast markers were examined in RAW264.7 cells transfected with the miRNA of interest, followed by RANKL treatment. FIG. 5F illustrates Western blot analysis for Pu.1, Nfatc1, or Ctsk in RAW264.7 cells after transient transfection with indicated miRNA and treatment with 50 ng/ml RANKL. Data in the figure represent average ±SEM; p values were based on Student's t-test.

[5] = Serum miRNA levels after injection of pre-miRNAs, qRT-PCR; format: in vivo, mice; details: qPCR of mouse serum
Method: RNA from cell lines was isolated using a miRVana miRNA isolation kit (AMBION®). Total RNA from mouse bleeds was isolated using Trizol LS (Invitrogen) according to manufacturers instructions. For microarrays, 5 μg total RNA was labeled using the NCode Rapid Labeling System (Invitrogen) and hybridized to custom arrays. The arrays were analyzed using the G2565BA scanner (Agilent Technologies), and median fluorescent intensities were obtained after subtracting background. To identify differential miRNA expression between samples, the median fluorescent intensities were normalized using the median expression values within the array and log 2 values analyzed.
mRNA was analyzed by synthesizing cDNA using the Superscript III First-strand kit (Invitrogen) and qPCR performed using the Power SYBR® green PCR master mix (Applied Biosystems). Mature miRNAs were reverse transcribed using the TaqMan Reverse Transcription Kit (Applied Biosystems) followed by real-time PCR using TaqMan miRNA assays (Applied Biosystems). All analysis was performed using an ABI 7900HT PCR machine according to the manufacturer's instructions. A standard curve was created from serial dilutions from cDNA for each gene of interest. Values were normalized by the expression of GAPDH or RNU6B in each sample.
FIG. 8C illustrates qRT-PCR miRNA expression levels from serum samples of mice taken at indicated times after injection with miRNAs. The results were statistically significant with p<0.01 (**). […] In contrast, miR-141 and miR-219 took substantially longer to clear from the serum, maintaining ˜20% of the normalized expression at 24 hours.

[6] = tested on: Traf6 3'UTR; assay: 3'UTR luciferase reporter assay, Traf6; format: cell-based, mouse; details: co-transfection in HeLa
Method: as §1, §2

[7] = tested on: Calcr 3'UTR; assay: 3'UTR luciferase reporter assay, Calcr; format: cell-based, mouse; details: co-transfection in HeLa
Method: as §1, §2

| Substance | osteoclast maturation and activity [1] | luciferase reporter activity, Mitf 3'UTR [2] | luciferase reporter activity, Mmp14 3'UTR [3] | expression of Pu.1, Nfatc1, Ctsk (Western blot) [4] | serum miRNA level within 6 hours of injection [5] | clearance from serum within 24 hours [5] | reduction of Mitf expression (3'UTR reporter) [2] [%] | luciferase reporter activity, Traf6 3'UTR [6] | normalized serum expression remaining at 24 hours [5] [%] | luciferase reporter activity, Calcr 3'UTR [7] |
| --- | --- | --- | --- | --- | --- | --- | --- | --- | --- | --- |
| miR-133a: miRNA, SEQ ID NO: 61; delivered as pre-miRNA precursor; targets Mitf and Mmp14 (UUUGGUCCCCUUCAACCAGCUA; delivered as pre-miRNA precursor, chemistry not given here; listed as Homo sapiens) | strongly inhibit | repress expression of Mitf | repressed | inhibited early osteoclast differentiation, with minimal expression of Nfatc1 | substantial decrease | nearly full clearance |  |  |  |  |
| miR-219: miRNA, SEQ ID NO: 66; delivered as pre-miRNA precursor; targets Mitf and Traf6 (UGAUUGUCCAAACGCAAUUCU; delivered as pre-miRNA precursor, chemistry not given here; listed as Homo sapiens) | strongly inhibit | repress expression of Mitf |  | inhibited early osteoclast differentiation, with minimal expression of Nfatc1 |  |  | ~20 | repressed | ~20 |  |
| miR-190: miRNA, SEQ ID NO: 64; delivered as pre-miRNA precursor; targets Calcr (UGAUAUGUUUGAUAUAUUAGGU; delivered as pre-miRNA precursor, chemistry not given here; listed as Homo sapiens) | Partial inhibition |  |  | expressed Pu.1 and Nfatc1, but not Ctsk | substantial decrease | nearly full clearance |  |  |  | able to repress |
| miR-141: miRNA, SEQ ID NO: 69; delivered as pre-miRNA precursor; targets Mitf and Calcr (UAACACUGUCUGGUAACGAUGU; delivered as pre-miRNA precursor, chemistry not given here; listed as Homo sapiens) | strongly inhibit | repress expression of Mitf |  | inhibited early osteoclast differentiation, with minimal expression of Nfatc1 |  |  | ~50 |  | ~20 | repressed |
